Laboratory results published in patent US9320736B2, “Zinc chelating agents for depleting XIAP and sensitizing tumor cells to apoptosis” (Institute for Cancer Research, priority 2012, dated 2016).
Entries after “also recorded” stand apart in the source; their conditions may differ.

What was measured:
[1] = tested on: XIAP; test: XIAP depletion in PC-3 cells by Western blot / immunoblotting; type: cell-based, human; conditions: for XIAP depletion (Western blot): chelator 50 μM, 4 hours, FIG. 3/4; for depletion of XIAP compared with TPEN: prostate cancer cells
Method: PC-3 cells were cultured in medium alone, or in the presence of PPIX (50 μM) for 4 hours, or 5-Ala (250 μM) for 24 hours. Expression of XIAP and GAPDH (control) was detected by immunoblotting with an antibody to XIAP or GADPH, respectively.
Cell Lines and Culture Conditions. A PC-3 castration-resistant prostate cancer cell line was obtained from the American Type and Culture Collection (Rockville, Md.). PC-3 cells were maintained in complete cell culture medium (RPMI 1640 medium (Bio-Whittaker, Walkersville, Md.) supplemented with 10% FCS (Hyclone, Logan, Utah), gentamicin (50 mg/L), sodium pyruvate (1 mM) and non-essential amino acids (0.1 mM)).
Analysis of XIAP Depletion in PC-3 Cell Line Following Administration of Heterocyclic Zn Chelators. PC-3 cells were cultured under three distinct conditions; medium alone, with administration of TPEN (8 μM) as a positive control for 2 hours, and with administration of an individual Zn chelators (MR) (50 μM) for 4 hours.
Western blot analysis was performed to assess for level of XIAP depletion. Whole cell lysates were prepared as described previously (Kolenko V et al. (1999) J. Immunol. 163: 590-8). Protein concentrations were measured with BCA protein assay reagents (Pierce, Rockford, Ill.). Equivalent amounts of proteins (20 μg) were mixed with an equal volume of 2× Laemmli sample buffer, boiled and resolved by electrophoresis in 10% sodium dodecyl sulfate-polyacrylamide gels (SDS-PAGE). The proteins were transferred from the gel to a nitrocellulose membrane using an electroblotting apparatus (Bio-Rad) (15 V, 3 mA/cm2 for 24 minutes).
Membranes were then incubated in a blocking solution containing 5% nonfat dry milk overnight to inhibit nonspecific binding. The membranes were then incubated with specific antibody (1-3 μg/ml) for 2 hours. After washing in TRIS/0.1% Tween 20 for 30 minutes, membranes were incubated for another 30 minutes with horseradish peroxidase-conjugated secondary antibody. The membranes were then washed and developed with enhanced chemiluminescence (ECL Western Blotting Kit, Amersham, Arlington Heights, Ill.).

[2] = tested on: PC-3 cells; test: TRAIL-mediated apoptosis in PC-3 cells (DNA fragmentation assay); type: cell-based, human; conditions: chelator combined with TRAIL, FIG. 4
[3] = tested on: cIAP1, cIAP2 and surviving; test: Expression of other zinc-containing IAP family members in TPEN-treated cells; type: cell-based
Source text: (§1) The inhibition of XIAP expression is selective, as TPEN has no effect on the expression levels of other zinc-containing members of IAP family, i.e., cIAP1, cIAP2 and surviving. As well, the XIAP mRNA level is not reduced in TPEN-treated cells. Therefore, zinc chelation by TPEN induces depletion of XIAP specifically at the protein level. […] Importantly, the sensitization to therapeutic agents is specific to malignant but not to benign cells. This cytotoxic specificity for malignant cells is consistent with experiments showing that XIAP is preferentially degraded in malignant but not in benign cells upon zinc chelation and stems from blunted regulation of zinc uptake transporters upon carcinogenesis.

[4] = tested on: XIAP mRNA; test: XIAP mRNA level in TPEN-treated cells; type: cell-based
Source text: as §1

[5] = tested on: XIAP; test: XIAP protein levels in xenograft animal model of human prostate cancer; type: in vivo
Source text: as §1

[6] = tested on: malignant cells; test: Potentiation of therapeutic agents by TPEN in malignant cells; type: cell-based; conditions: specific to malignant, not benign cells
Source text: as §1

[7] = tested on: XIAP; conditions: human prostate cancer cells; Makhov et al. 2008; cited from earlier work
[8] = Intravenous tolerability in C.B17/Icr-scid mice; type: in vivo; conditions: two 6 week-old male C.B17/Icr-scid mice, iv 100 μl at 15 mM
Method: Animal Studies. Two 6 week-old male C.B17/Icr-scid mice were injected intravenously with 100 μl of MR13 chelator at final concentration of 15 mM.

[9] = tested on: PC-3 tumors; test: PC-3 tumor growth in ectopic xenograft mouse model of prostate cancer; type: in vivo; conditions: 5-Ala ip 10 mg/mouse daily combined with HGS-ETR1 iv 0.25 mg/mouse once a week, PC-3 tumors in male C.B17/Icr-scid mice, FIG. 2
Method: PC-3 tumors were established in male C.B17/Icr-scid mice. When tumor volumes reach approximately 200 mm^3, the animals were grouped (n=5 for each group) and treated with saline (control), an ip injection of 5-Ala (10 mg/mouse, daily) and/or an iv injection of HGS-ETR1 (0.25 mg/mouse once a week).

## N#Cc1ccc(S(=O)(=O)Nc2cccc3cccnc23)cc1 [MR44]
[1]; PC-3 cells
  XIAP depletion (Western blot): completely depleted XIAP
[1]
  depletion of XIAP compared with TPEN: at least as effectively as TPEN
[2]
  promotion of TRAIL-mediated cell death / apoptotic response: promoted TRAIL-mediated cell death

## O=S(=O)(Nc1ccccc1-c1nc2ccccc2[nH]1)c1ccc(F)cc1 [MR66]
[1]; PC-3 cells
  XIAP depletion (Western blot): failed to induce XIAP depletion
[2]
  promotion of TRAIL-mediated cell death / apoptotic response: did not succeeded in producing an apoptotic response

## c1ccc(CN(CCN(Cc2ccccn2)Cc2ccccn2)Cc2ccccn2)nc1 [TPEN, N,N,N′,N′-tetrakis(2-pyridylmethyl)-ethylenediamine]
[3]
  effect on expression levels of other zinc-containing IAP family members: no effect
[4]
  XIAP mRNA level: not reduced
[5]
  XIAP protein levels in vivo: rapid decrease of XIAP protein levels
[6]
  potentiation of the action of HGS-ETR1 (mapatumumab) and docetaxel: markedly potentiated
[7]
  depletion of XIAP: selective and rapid depletion; also recorded: rapidly depletes XIAP

## O=S(=O)(Nc1ccccc1-c1nc2ccccc2[nH]1)c1c(F)cccc1F [MR96]
[1]; PC-3 cells
  XIAP depletion (Western blot): failed to induce XIAP depletion
[2]
  promotion of TRAIL-mediated cell death / apoptotic response: did not succeeded in producing an apoptotic response

## O=S(=O)(Nc1cccc2cccnc12)c1ccc(F)c(Cl)c1 [MR13]
[1]; PC-3 cells
  XIAP depletion (Western blot): completely depleted XIAP
[1]
  depletion of XIAP compared with TPEN: at least as effectively as TPEN
[2]
  promotion of TRAIL-mediated cell death / apoptotic response: promoted TRAIL-mediated cell death
[8]
  tolerability of intravenous administration: well tolerated

## NCC(=O)CCC(=O)O [5-Ala, 5-aminolevulinic acid, reference compound]
[1]; PC-3 cells, 5-Ala 250 μM, 24 hours, FIG. 1
  XIAP expression (immunoblot): reduces XIAP levels; also recorded: significantly reduced XIAP expression
[9]
  tumor growth / antitumor effect: augments HGS-ETR1 the antitumor effect
[9]; listed as 5-ALA
  tumor growth / antitumor effect: completely arrested tumor growth
